In patent US11053213B2, “Pharmaceutical compounds” (ALMAC DISCOVERY LIMITED, priority 2016, dated 2021) one finds IC50 data, which are given here for 26 molecules.

pIC50: −log10 of the molar value.

What is called pIC50 is the IC50 on a negative log10 scale, so that one unit is a factor of ten.

In this experiment the target is USP19 (Homo sapiens (Human), UniProt O94966). Briefly: USP19 activity assay (fluorescence polarisation, Ubiquitin-Lys-TAMRA substrate). The format is biochemical. Conditions: full-length USP19 2.5 nM, 30 min pre-incubation, Ub substrate 500 nM; average of at least two duplicate experiments. In general terms: Polarisation of emitted light reports the rotation of a fluorescent probe.
USP19, sequence (O94966 whole entry): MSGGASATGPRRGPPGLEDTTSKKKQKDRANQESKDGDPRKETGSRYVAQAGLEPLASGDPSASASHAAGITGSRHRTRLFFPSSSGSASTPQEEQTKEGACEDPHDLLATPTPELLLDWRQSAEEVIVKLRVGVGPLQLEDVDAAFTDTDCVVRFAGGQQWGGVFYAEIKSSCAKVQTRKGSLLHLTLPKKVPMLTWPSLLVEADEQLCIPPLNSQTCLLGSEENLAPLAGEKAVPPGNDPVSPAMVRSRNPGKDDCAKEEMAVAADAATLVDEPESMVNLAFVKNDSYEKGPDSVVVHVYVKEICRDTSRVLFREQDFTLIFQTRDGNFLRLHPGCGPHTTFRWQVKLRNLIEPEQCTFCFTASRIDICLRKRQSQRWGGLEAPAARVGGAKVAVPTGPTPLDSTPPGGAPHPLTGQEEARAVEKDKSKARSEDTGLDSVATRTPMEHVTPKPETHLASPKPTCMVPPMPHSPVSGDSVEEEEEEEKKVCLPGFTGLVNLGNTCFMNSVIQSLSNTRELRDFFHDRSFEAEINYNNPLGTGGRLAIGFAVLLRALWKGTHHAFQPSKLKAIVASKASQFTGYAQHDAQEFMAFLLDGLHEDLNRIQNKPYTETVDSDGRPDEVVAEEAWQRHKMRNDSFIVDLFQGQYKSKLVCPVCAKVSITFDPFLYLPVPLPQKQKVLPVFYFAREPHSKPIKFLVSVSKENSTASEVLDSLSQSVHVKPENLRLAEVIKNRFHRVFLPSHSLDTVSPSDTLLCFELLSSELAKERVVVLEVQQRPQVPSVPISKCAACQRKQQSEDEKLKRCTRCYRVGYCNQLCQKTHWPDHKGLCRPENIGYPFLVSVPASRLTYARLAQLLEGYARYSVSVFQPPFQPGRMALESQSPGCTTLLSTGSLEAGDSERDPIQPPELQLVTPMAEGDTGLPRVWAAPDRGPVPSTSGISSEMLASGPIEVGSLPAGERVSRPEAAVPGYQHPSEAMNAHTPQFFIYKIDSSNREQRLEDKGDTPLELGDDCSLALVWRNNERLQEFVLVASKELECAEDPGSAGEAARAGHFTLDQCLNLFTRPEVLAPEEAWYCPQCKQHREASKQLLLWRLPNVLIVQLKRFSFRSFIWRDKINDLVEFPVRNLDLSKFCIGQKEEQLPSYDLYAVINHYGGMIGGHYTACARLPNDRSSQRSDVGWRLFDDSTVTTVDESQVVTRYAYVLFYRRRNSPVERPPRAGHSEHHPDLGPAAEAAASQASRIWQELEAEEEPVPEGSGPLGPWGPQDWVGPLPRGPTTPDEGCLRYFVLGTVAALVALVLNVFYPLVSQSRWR
Take `CN(C)C(=O)c1cn(C[C@]2(O)CCN(C(=O)[C@H](CCO)CC3CCCCC3)CC2(C)C)c(=O)cc1-c1ccccc1` [Example 164, 1-(((S)-1-((S)-2-(Cyclohexylmethyl)-4-hydroxybutanoyl)-4-hydroxy-3,3-dimethylpiperidin-4-yl)methyl)-N,N-dimethyl-6-oxo-4-phenyl-1,6-dihydropyridine-3-carboxamide]: the pIC50 was more than 6.30.

Consider `CN(C)C(=O)c1cn(C[C@@]2(O)CCN(C(=O)[C@H](CCO)CC3CCCCC3)CC2(C)C)c(=O)cc1-c1ccccc1` [Example 165, 1-(((R)-1-((S)-2-(Cyclohexylmethyl)-4-hydroxybutanoyl)-4-hydroxy-3,3-dimethylpiperidin-4-yl)methyl)-N,N-dimethyl-6-oxo-4-phenyl-1,6-dihydropyridine-3-carboxamide], for which the pIC50 is 4.30 to 5.30.

`CN(C)C(=O)c1cn(C[C@]2(O)CCN(C(=O)[C@H](CO)CC3CCC3)CC2(C)C)c(=O)cc1-c1ccccc1` [Example 166, 1-(((S)-1-((S)-3-Cyclobutyl-2-(hydroxymethyl)propanoyl)-4-hydroxy-3,3-dimethylpiperidin-4-yl)methyl)-N,N-dimethyl-6-oxo-4-phenyl-1,6-dihydropyridine-3-carboxamide]: the pIC50 is more than 6.30.

For the molecule `C[C@H](CC1CCCCC1)C(=O)N1CCC(O)(Cn2cc(C(=O)N3CCOCC3)c(-c3ccccc3)cc2=O)C(C)(C)C1` (stereo partly drawn) [Example 168, 1-((1-((R)-3-Cyclohexyl-2-methylpropanoyl)-4-hydroxy-3,3-dimethylpiperidin-4-yl)methyl)-5-(morpholine-4-carbonyl)-4-phenylpyridin-2(1H)-one], the pIC50 is more than 6.30.

On to `CC(=O)N1CCN(C(=O)c2cn(CC3(O)CCN(C(=O)[C@H](C)CC4CCCCC4)CC3(C)C)c(=O)cc2-c2ccccc2)CC1` (stereo partly drawn) [Example 169, 5-(4-Acetylpiperazine-1-carbonyl)-1-((1-((R)-3-cyclohexyl-2-methylpropanoyl)-4-hydroxy-3,3-dimethylpiperidin-4-yl)methyl)-4-phenylpyridin-2(1H)-one], for which the pIC50 is more than 6.30.

On to `C[C@H](CC1CCCCC1)C(=O)N1CCC(O)(Cn2cc(C(=O)N3CCN(C)CC3)c(-c3ccccc3)cc2=O)C(C)(C)C1` (stereo partly drawn) [Example 170, 1-((1-((R)-3-Cyclohexyl-2-methylpropanoyl)-4-hydroxy-3,3-dimethylpiperidin-4-yl)methyl)-5-(4-methylpiperazine-1-carbonyl)-4-phenylpyridin-2(1H)-one], for which the negative-log IC50 (pIC50) was more than 6.30.

Take `CC(CC(=O)N1CCC(O)(Cn2cc(C(=O)N(C)C)c(-c3ccccc3)cc2=O)C2(CCCC2)C1)C(F)(F)F` (centres unmarked) [Example 171, 1-((10-Hydroxy-7-(4,4,4-trifluoro-3-methylbutanoyl)-7-azaspiro[4.5]decan-10-yl)methyl)-N,N-dimethyl-6-oxo-4-phenyl-1,6-dihydropyridine-3-carboxamide]: the negative logarithm of the IC50 (pIC50) was 3.60 to 4.30.

`CN(C)C(=O)c1cn(CC2(O)CCN(C(=O)CCC(F)(F)F)CC23CCCC3)c(=O)cc1-c1ccccc1` (centres unmarked) [Example 172, 1-((10-Hydroxy-7-(4,4,4-trifluorobutanoyl)-7-azaspiro[4.5]decan-10-yl)methyl)-N,N-dimethyl-6-oxo-4-phenyl-1,6-dihydropyridine-3-carboxamide]: the pIC50 is 4.30 to 5.30.

On to `CN(C)C(=O)c1cn(CC2(O)CCN(C(=O)CCC3CCOC3)CC23CCCC3)c(=O)cc1-c1ccccc1` (centres unmarked) [Example 173, 1-((10-Hydroxy-7-(3-(tetrahydrofuran-3-yl)propanoyl)-7-azaspiro[4.5]decan-10-yl)methyl)-N,N-dimethyl-6-oxo-4-phenyl-1,6-dihydropyridine-3-carboxamide], for which the pIC50 was 3.60 to 4.30.

Regarding `CN(C)C(=O)c1cn(CC2(O)CCN(C(=O)[C@@H]3C[C@@H]3c3ccccc3)CC23CCCC3)c(=O)cc1-c1ccccc1` (stereo partly drawn) [Example 174, 1-((10-Hydroxy-7-((1R,2S)-2-phenylcyclopropane-1-carbonyl)-7-azaspiro[4.5]decan-10-yl)methyl)-N,N-dimethyl-6-oxo-4-phenyl-1,6-dihydropyridine-3-carboxamide], the pIC50 is more than 6.30.

`CN(C)C(=O)c1cn(CC2(O)CCN(C(=O)C3CC3)CC23CCCC3)c(=O)cc1-c1ccccc1` (centres unmarked) [Example 175, 1-((7-(Cyclopropanecarbonyl)-10-hydroxy-7-azaspiro[4.5]decan-10-yl)methyl)-N,N-dimethyl-6-oxo-4-phenyl-1,6-dihydropyridine-3-carboxamide]: the pIC50 was 3.60 to 4.30.

For `CN(C)C(=O)c1cn(CC2(O)CCN(C(=O)C3(C)CCCCC3)CC23CCCC3)c(=O)cc1-c1ccccc1` (centres unmarked) [Example 176, 1-((10-Hydroxy-7-(1-methylcyclohexane-1-carbonyl)-7-azaspiro[4.5]decan-10-yl)methyl)-N,N-dimethyl-6-oxo-4-phenyl-1,6-dihydropyridine-3-carboxamide], the pIC50 was 4.30 to 5.30.

With `CN(C)C(=O)c1cn(CC2(O)CCN(C(=O)C3CCC(F)C3)CC23CCCC3)c(=O)cc1-c1ccccc1` (centres unmarked) [Example 177, 1-((7-(3-Fluorocyclopentane-1-carbonyl)-10-hydroxy-7-azaspiro[4.5]decan-10-yl)methyl)-N,N-dimethyl-6-oxo-4-phenyl-1,6-dihydropyridine-3-carboxamide], the pIC50 was 3.60 to 4.30.

Consider `CN(C)C(=O)c1cn(CC2(O)CCN(C(=O)C3(CC(F)F)CC3)CC23CCCC3)c(=O)cc1-c1ccccc1` (centres unmarked) [Example 178, 1-((7-(1-(2,2-Difluoroethyl)cyclopropane-1-carbonyl)-10-hydroxy-7-azaspiro[4.5]decan-10-yl)methyl)-N,N-dimethyl-6-oxo-4-phenyl-1,6-dihydropyridine-3-carboxamide], for which the pIC50 is 3.60 to 4.30.

In the case of `CN(C)C(=O)c1cn(CC2(O)CCN(C(=O)C34CCC(CC3)C4)CC23CCCC3)c(=O)cc1-c1ccccc1` (centres unmarked) [Example 179, 1-((7-(Bicyclo[2.2.1]heptane-1-carbonyl)-10-hydroxy-7-azaspiro[4.5]decan-10-yl)methyl)-N,N-dimethyl-6-oxo-4-phenyl-1,6-dihydropyridine-3-carboxamide], the pIC50 is 3.60 to 4.30.

Take `CN(C)C(=O)c1cn(CC2(O)CCN(C(=O)C[C@@H](c3ccccc3)C(F)F)CC23CCCC3)c(=O)cc1-c1ccccc1` (stereo partly drawn) [Example 180, 1-((7-((S)-4,4-Difluoro-3-phenylbutanoyl)-10-hydroxy-7-azaspiro[4.5]decan-10-yl)methyl)-N,N-dimethyl-6-oxo-4-phenyl-1,6-dihydropyridine-3-carboxamide]: the pIC50 is 4.30 to 5.30.

In the case of `CN(C)C(=O)c1cn(CC2(O)CCN(C(=O)C[C@H](c3ccccc3)C(F)F)CC23CCCC3)c(=O)cc1-c1ccccc1` (stereo partly drawn) [Example 181, 1-((7-((R)-4,4-Difluoro-3-phenylbutanoyl)-10-hydroxy-7-azaspiro[4.5]decan-10-yl)methyl)-N,N-dimethyl-6-oxo-4-phenyl-1,6-dihydropyridine-3-carboxamide], the pIC50 was 5.30 to 6.30.

In the case of `CCOCCC(=O)N1CCC(O)(Cn2cc(C(=O)N(C)C)c(-c3ccccc3)cc2=O)C2(CCCC2)C1` (centres unmarked) [Example 182, 1-((7-(3-Ethoxypropanoyl)-10-hydroxy-7-azaspiro[4.5]decan-10-yl)methyl)-N,N-dimethyl-6-oxo-4-phenyl-1,6-dihydropyridine-3-carboxamide], the pIC50 was 4.30 to 5.30.

Take `C[C@@H](CC(=O)N1CCC(O)(Cn2cc(C(=O)N(C)C)c(-c3ccccc3)cc2=O)C2(CCCC2)C1)c1ccccc1` (stereo partly drawn) [Example 183, 1-((10-Hydroxy-7-((S)-3-phenylbutanoyl)-7-azaspiro[4.5]decan-10-yl)methyl)-N,N-dimethyl-6-oxo-4-phenyl-1,6-dihydropyridine-3-carboxamide]: the pIC50 was 4.30 to 5.30.

Consider `CN(C)C(=O)c1cn(CC2(O)CCN(C(=O)CCc3ccc(F)cc3)CC23CCCC3)c(=O)cc1-c1ccccc1` (centres unmarked) [Example 184, 1-((7-(3-(4-Fluorophenyl)propanoyl)-10-hydroxy-7-azaspiro[4.5]decan-10-yl)methyl)-N,N-dimethyl-6-oxo-4-phenyl-1,6-dihydropyridine-3-carboxamide], for which the pIC50 was 5.30 to 6.30.

In the case of `C[C@H](CC(=O)N1CCC(O)(Cn2cc(C(=O)N(C)C)c(-c3ccccc3)cc2=O)C2(CCCC2)C1)c1ccccc1` (stereo partly drawn) [Example 185, 1-((10-Hydroxy-7-((R)-3-phenylbutanoyl)-7-azaspiro[4.5]decan-10-yl)methyl)-N,N-dimethyl-6-oxo-4-phenyl-1,6-dihydropyridine-3-carboxamide], the negative-log IC50 (pIC50) is 5.30 to 6.30.

Regarding `CN(C)C(=O)c1cn(CC2(O)CCN(C(=O)C3(C)CCCC3)CC23CCCC3)c(=O)cc1-c1ccccc1` (centres unmarked) [Example 186, 1-((10-Hydroxy-7-(1-methylcyclopentane-1-carbonyl)-7-azaspiro[4.5]decan-10-yl)methyl)-N,N-dimethyl-6-oxo-4-phenyl-1,6-dihydropyridine-3-carboxamide], the negative-log IC50 (pIC50) was 3.60 to 4.30.

On to `CN(C)C(=O)c1cn(CC2(O)CCN(C(=O)c3cc[nH]n3)CC23CCCC3)c(=O)cc1-c1ccccc1` (centres unmarked) [Example 187, 1-((10-Hydroxy-7-(1H-pyrazole-3-carbonyl)-7-azaspiro[4.5]decan-10-yl)methyl)-N,N-dimethyl-6-oxo-4-phenyl-1,6-dihydropyridine-3-carboxamide], for which the pIC50 was 3.60 to 4.30.

For the molecule `CN(C)C(=O)c1cn(CC2(O)CCN(C(=O)c3n[nH]c4ccccc34)CC23CCCC3)c(=O)cc1-c1ccccc1` (centres unmarked) [Example 188, 1-((10-Hydroxy-7-(1H-indazole-3-carbonyl)-7-azaspiro[4.5]decan-10-yl)methyl)-N,N-dimethyl-6-oxo-4-phenyl-1,6-dihydropyridine-3-carboxamide], the pIC50 was 3.60 to 4.30.

Take `CN(C)C(=O)c1cn(CC2(O)CCN(C(=O)c3c[nH]nc3C3CCCCC3)CC23CCCC3)c(=O)cc1-c1ccccc1` (centres unmarked) [Example 189, 1-((7-(3-Cyclohexyl-1H-pyrazole-4-carbonyl)-10-hydroxy-7-azaspiro[4.5]decan-10-yl)methyl)-N,N-dimethyl-6-oxo-4-phenyl-1,6-dihydropyridine-3-carboxamide]: the negative-log IC50 (pIC50) was 5.30 to 6.30.

For the molecule `CN(C)C(=O)c1cn(CC2(O)CCN(C(=O)c3c[nH]c4ccccc34)CC23CCCC3)c(=O)cc1-c1ccccc1` (centres unmarked) [Example 190, 1-((10-Hydroxy-7-(1H-indole-3-carbonyl)-7-azaspiro[4.5]decan-10-yl)methyl)-N,N-dimethyl-6-oxo-4-phenyl-1,6-dihydropyridine-3-carboxamide], the pIC50 is 3.60 to 4.30.
